The subject of the series is rodent carcinogenicity bioassays, tumor incidence. Nature of the series: CCRIS carcinogenicity studies. A digest of the protocol: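 Archive of carcinogenicity, mutagenicity, tumor promotion and tumor inhibition results drawn from journals, NCI reports and other sources, expert-reviewed; covers 1985-2011 and is no longer updated.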

Activity calls are given as the source filed them. No rule for the calls is given here.

Take `CC(=O)CN(CC(C)=O)N=O`: the carcinogen call (Species: GUINEA PIG, Strain/Sex: STRAIN-13/MALE, Route: SUBCUTANEOUS, Dose: 70 MG/KG/WK FOR 2 WK FOLLOWED BY 1 WK NO TREATMENT THEN 20 MG/KG/WK FOR 2 WK, Tumor Site: Type of Lesion: LIVER: CHOLANGIOMA, CHOLANGIOCARCINOMA) is “active; positive”; the carcinogen call (Species: HAMSTER, Strain/Sex: SYRIAN/FEMALE, Route: SUBCUTANEOUS, Dose: 2.5, 5, 10 MG/KG, Dose: 2.5, 5, 10 MG/KG, Tumor Site: Type of Lesion: PANCREAS: DUCTAL ADENOMA, INTRADUCTAL CARCINOMA, ADENOCARCINOMA, LUNG: ADENOMA, ADENOCARCINOMA, SQUAMOUS CELL CARCINOMA;, Tumor Site: Type of Lesion: PANCREAS: DUCTAL ADENOMA, INTRADUCTAL CARCINOMA, ADENOCARCINOMA, LUNG: ADENOMA, ADENOCARCINOMA, SQUAMOUS CELL CARCINOMA) was “active; positive”; the carcinogen call (Species: HAMSTER, Strain/Sex: SYRIAN/MALE,FEMALE, Route: ORAL, Dose: 0.35, 0.7, 1.4% IN DRINKING WATER, Dose: 0.35, 0.7, 1.4% IN DRINKING WATER, Tumor Site: Type of Lesion: LIVER: CHOLANGIOMA, INTRADUCTAL CARCINOMA, CHOLANGIOCARCINOMA, GALL BLADDER: POLYP, COMMON BILE DUCT: POLYP, COMMON DUCT, Tumor Site: Type of Lesion: LIVER: CHOLANGIOMA, INTRADUCTAL CARCINOMA, CHOLANGIOCARCINOMA, GALL BLADDER: POLYP, COMMON BILE DUCT: POLYP, COMMON DUCT) is “active; positive”; the carcinogen call (Species: HAMSTER, Strain/Sex: SYRIAN/MALE, Route: SUBCUTANEOUS, Dose: 2.5, 5, 10 MG/KG, Dose: 2.5, 5, 10 MG/KG, Tumor Site: Type of Lesion: PANCREAS: DUCTAL ADENOMA, INTRADUCTAL CARCINOMA, ADENOCARCINOMA, LUNG: ADENOMA, ADENOCARCINOMA, GALL BLADDER: PAPILLARY, Tumor Site: Type of Lesion: PANCREAS: DUCTAL ADENOMA, INTRADUCTAL CARCINOMA, ADENOCARCINOMA, LUNG: ADENOMA, ADENOCARCINOMA, GALL BLADDER: PAPILLARY) is “active; positive”; the carcinogen call (Species: MOUSE, Strain/Sex: ICR/FEMALE, Route: SUBCUTANEOUS, Dose: 0, 10, 20, 40 MG/KG BW IN 1% GELATIN SOLUTION ON DAYS 1, 8, 15 AND 22 OF AGE (STUDY DURATION: 1 YR), Dose: 0, 10, 20, 40 MG/KG BW IN 1% GELATIN SOLUTION ON DAYS 1, 8, 15 AND 22 OF AGE (STUDY DURATION: 1 YR), Tumor Site: Type of Lesion: NASAL CAVITY: TUMOR, LUNG: TUMOR, LIVER: TUMOR, Tumor Site: Type of Lesion: NASAL CAVITY: TUMOR, LUNG: TUMOR, LIVER: TUMOR) was “active; positive”; the carcinogen call (Species: MOUSE, Strain/Sex: ICR/MALE, Route: SUBCUTANEOUS, Dose: 0, 10, 20, 40 MG/KG BW IN 1% GELATIN SOLUTION ON DAYS 1, 8, 15 AND 22 OF AGE (STUDY DURATION: 1 YR), Dose: 0, 10, 20, 40 MG/KG BW IN 1% GELATIN SOLUTION ON DAYS 1, 8, 15 AND 22 OF AGE (STUDY DURATION: 1 YR), Tumor Site: Type of Lesion: NASAL CAVITY: TUMOR, LUNG: TUMOR, LIVER: TUMOR, Tumor Site: Type of Lesion: NASAL CAVITY: TUMOR, LUNG: TUMOR, LIVER: TUMOR) was “active; positive”. Moreover, the carcinogen call was “active; positive” (Species: RAT, Strain/Sex: CD-1/FEMALE, Route: SUBCUTANEOUS, Dose: 0, 5.35, 10.7, 21.4 MG/KG 1/WK FOR LIFE (STUDY DURATION: LIFE), Dose: 0, 5.35, 10.7, 21.4 MG/KG 1/WK FOR LIFE (STUDY DURATION: LIFE), Tumor Site: Type of Lesion: NASAL CAVITY: TUMOR); “active; positive” (Species: RAT, Strain/Sex: CD-1/MALE, Route: SUBCUTANEOUS, Dose: 0, 6.15, 12.3, 24.6 MG/KG 1/WK FOR LIFE (STUDY DURATION: LIFE), Dose: 0, 6.15, 12.3, 24.6 MG/KG 1/WK FOR LIFE (STUDY DURATION: LIFE), Tumor Site: Type of Lesion: NASAL CAVITY: TUMOR); “active; positive” (Species: RAT, Strain/Sex: F344/FEMALE, Route: INTRAVESICULAR, Dose: 0, 0.8 MG IN 0.2 ML ETHANOL: DEIONIZED WATER (1:3) 2/WK FOR 30 WK (TOTAL DOSE 0.3 MMOL) (STUDY DURATION: LIFESPAN), Tumor Site: Type of Lesion: BLADDER: TRANSITIONAL CELL CARCINOMA, TRANSITIONAL CELL PAPILLOMA, LUNG: TUMOR, KIDNEY: MESENCHYMAL NEOPLASM, LIVER: TUM, Tumor Site: Type of Lesion: BLADDER: TRANSITIONAL CELL CARCINOMA, TRANSITIONAL CELL PAPILLOMA, LUNG: TUMOR, KIDNEY: MESENCHYMAL NEOPLASM, LIVER: TUM); “active; positive” (Species: RAT, Strain/Sex: F344/FEMALE, Route: ORAL, Dose: 0, 55 MG/L DRINKING WATER 5 D/WK FOR 50 WK (TOTAL DOSE 275 MG) (STUDY DURATION: LIFESPAN), Tumor Site: Type of Lesion: LIVER: CARCINOMA, ANGIOSARCOMA, LUNG: TUMOR); “active; positive” (Species: RAT, Strain/Sex: F344/FEMALE, Route: SUBCUTANEOUS, Dose: 0, 10 MG/KG/BW 2/WK FOR A TOTAL OF 11 DOSES BEGINNING AT 2 D OF AGE (STUDY DURATION: 26 WK), Tumor Site: Type of Lesion: LIVER: HEPATOCELLULAR CARCINOMA, KIDNEY: NEPHROBLASTOMA); “active; positive” (Species: RAT, Strain/Sex: F344/MALE, Route: SUBCUTANEOUS, Dose: 0, 10 MG/KG/BW 2/WK FOR A TOTAL OF 11 DOSES BEGINNING AT 2 D OF AGE (STUDY DURATION: 26 WK), Tumor Site: Type of Lesion: LIVER: HEPATOCELLULAR CARCINOMA, KIDNEY: NEPHROBLASTOMA, TESTIS: GONADAL STROMAL TUMOR, Tumor Site: Type of Lesion: LIVER: HEPATOCELLULAR CARCINOMA, KIDNEY: NEPHROBLASTOMA, TESTIS: GONADAL STROMAL TUMOR). The carcinogen call runs as follows: (Species: RAT, Strain/Sex: MRC/MALE,FEMALE, Route: SUBCUTANEOUS, Dose: 2.5, 5, 10 MG/KG, Dose: 2.5, 5, 10 MG/KG, Tumor Site: Type of Lesion: THYROID GLAND: FOLLICULAR ADENOMA, CARCINOMA) “active; positive”; (Species: RAT, Strain/Sex: SPRAGUE-DAWLEY/FEMALE, Route: SUBCUTANEOUS, Dose: 0, 5.35, 10.7, 21.4 MG/KG BW IN 0.9% SALINE 1/WK FOR DURATION OF STUDY (STUDY DURATION: 96 WK), Dose: 0, 5.35, 10.7, 21.4 MG/KG BW IN 0.9% SALINE 1/WK FOR DURATION OF STUDY (STUDY DURATION: 96 WK), Tumor Site: Type of Lesion: KIDNEY (RENAL PELVIS): TUMOR, URETER: TUMOR, URINARY BLADDER: TUMOR, Tumor Site: Type of Lesion: KIDNEY (RENAL PELVIS): TUMOR, URETER: TUMOR, URINARY BLADDER: TUMOR) “active; positive”; (Species: RAT, Strain/Sex: SPRAGUE-DAWLEY/MALE, Route: SUBCUTANEOUS, Dose: 0, 6.15, 12.3, 24.6 MG/KG BW IN 0.9% SALINE 1/WK FOR DURATION OF STUDY (STUDY DURATION: 96 WK), Dose: 0, 6.15, 12.3, 24.6 MG/KG BW IN 0.9% SALINE 1/WK FOR DURATION OF STUDY (STUDY DURATION: 96 WK), Tumor Site: Type of Lesion: KIDNEY (RENAL PELVIS): TUMOR, URINARY BLADDER: TUMOR) “active; positive”.

For `Cc1c(N)nc(C)c2c1[nH]c1ccccc12`, the carcinogen call is, setting by setting: (Species: MOUSE, Strain/Sex: CDF1/FEMALE, Route: ORAL, Dose: 0, 200 PPM IN DIET FOR 621 D, Tumor Site: Type of Lesion: LIVER: HEPATOCELLULAR CARCINOMA) “active; positive”; (Species: MOUSE, Strain/Sex: DDY/FEMALE, Route: BLADDER IMPLANT, Dose: 0, 5% IN PARAFFIN PELLET (STUDY DURATION: 40 WK), Tumor Site: Type of Lesion: URINARY BLADDER: TRANSITIONAL CELL CARCINOMA) “active; positive”; (Species: RAT, Strain/Sex: F344/FEMALE, Route: ORAL, Dose: 0, 0.02% IN PELLET DIET FOR DURATION OF STUDY (STUDY DURATION: 365 D), Tumor Site: Type of Lesion: LIVER: TRABECULAR CARCINOMA, ADENOCARCINOMA) “active; positive”; (Species: RAT, Strain/Sex: F344/MALE, Route: ORAL, Dose: 0, 0.015% IN PELLET DIET FOR DURATION OF STUDY (STUDY DURATION: 365 D), Tumor Site: Type of Lesion: LIVER: TRABECULAR CARCINOMA, ADENOCARCINOMA) “active; positive”.

For `NC(=O)N(CCF)N=O`, the carcinogen call by setting is: (Species: RAT, Strain/Sex: F344/MALE, Route: GAVAGE, Dose: 0, 1.75 MG/ML (TOTAL DOSE 0; 0.2 MMOL) IN 2 ML ETHYL ACETATE AND CORN OIL (1:2) 2/WK FOR 40 WK (STUDY DURATION: LIFETIME, Dose: 0, 1.75 MG/ML (TOTAL DOSE 0; 0.2 MMOL) IN 2 ML ETHYL ACETATE AND CORN OIL (1:2) 2/WK FOR 40 WK (STUDY DURATION: LIFETIME) “inactive; negative”; (Species: RAT, Strain/Sex: F344/MALE, Route: GAVAGE, Dose: 0, 1.75 MG/ML IN 0.2 ML ETHYL ACETATE AND CORN OIL 2/WK FOR 40 WK (STUDY DURATION: LIFESPAN), Tumor Site: Type of Lesion: FORESTOMACH: TUMOR) “active; positive”.

Regarding `NC(N)=S`, the carcinogen call (Species: RAT, Route: ORAL, Tumor Site: Type of Lesion: LIVER, THYROID GLAND, EAR (ZYMBAL GLAND), Tumor Site: Type of Lesion: LIVER, THYROID GLAND, EAR (ZYMBAL GLAND)) is “active; positive”.

Source of the values: PubChem BioAssay AID1259411 (Chemical Carcinogenesis Research Information System (CCRIS), 2018).
